Where two headings read alike, the source gives them in different places.
Columns and labels:
Type in all cases: physicochemical
[1] = Average particle size measurement (Malvern Mastersizer 2000, particle size distribution); settings: for Particle size distribution D(v,0.1) / Particle size distribution D(v,0.2) / Particle size distribution D(v,0.8) / Particle size distribution D(v,0.95) / Particle size distribution D(v,0.98) / Particle size distribution D(v,1.0) / Particle size distribution D(v,0.5) / Particle size distribution D(v,0.9): carrier liquid water; for Particle size distribution D(v,0.5): size for 50% of the particles; for Particle size distribution D(v,0.9): size for 90% of the particles; for D(V, 0.9): in µm (unit assumed)
Protocol: Average Particle Size Measurement: Particle size was measured by Malvern model Mastersizer 2000, equipped with Malvern Hydro G circulation cell. Carrier: liquid:water. System description: Measuring range: from 0.02-2000 μm. Accuracy: 1% on the Dv50 Light sources: Red light-helium neon laser. Blue light-solid state light source.

[2] = Bulk density (tapped density tester VanKel 50-2300)
Protocol: Bulk Density: Bulk density was measured using tapped density tester dual-platform model VanKel 50-2300 (Varian Inc.). System specifications. Speed: nominal rate of 300 taps per minute, Accuracy: Actual setting±1 tap, Drop height: 14±2 mm. Platform rotation: 5-15 rotations/minute.

[3] = Flowability / electrostatic charging of the ground material; settings: ground by conventional mill
[4] = listed as Telmisartan form A, obtained by crystallization from DMSO
[5] = listed as Telmisartan form A, obtained by crystallization from water
[6] = Sonicated material with no milling

Structure (SMILES) | Particle size distribution D(v,0.1) [1] [μ] | Particle size distribution D(v,0.2) [1] [μ] | Particle size distribution D(v,0.8) [1] [μ] | Particle size distribution D(v,0.95) [1] [μ] | Particle size distribution D(v,0.98) [1] [μ] | Particle size distribution D(v,1.0) [1] [μ] | Particle size distribution D(v,0.5) [1] [μ] | Particle size distribution D(v,0.9) [1] [μ] | further results
CCCc1nc2c(C)cc(-c3nc4ccccc4n3C)cc2n1Cc1ccc(-c2ccccc2C(=O)O)cc1 [Example 1, Telmisartan] | 1.60 | 2.25 | 11.46 | 22.21 | 29.03 | 52.87 | 4.98 | 16.78 | Particle size distribution D(v,0.5) [1, 4]: about 5 μ; Particle size distribution D(v,0.9) [1, 4]: about 17 μ; Bulk density [2]: about 0.3 g/ml; Bulk density [2, 4]: about 0.3 g/ml; Flowability of ground material [3]: free flowing crystalline powder that does not tend to gain electrostatic charge upon grinding
CCCc1nc2c(C)cc(-c3nc4ccccc4n3C)cc2n1Cc1ccc(-c2ccccc2C(=O)O)cc1 [Example 2, Telmisartan] | 0.35 | 0.85 | 11.90 | 23.03 | 30.08 | 52.871 | 4.33 | 17.48 | Particle size distribution D(v,0.5) [1, 5]: about 4.3 μ; Particle size distribution D(v,0.9) [1, 5]: about 17.5 μ; Bulk density [2, 5]: about 0.22 g/ml
CCCc1nc2c(C)cc(-c3nc4ccccc4n3C)cc2n1Cc1ccc(-c2ccccc2C(=O)O)cc1 [Example 4, Telmisartan] | 1.08 | 1.45 | 6.04 | 12.07 | 16.13 | 33.57 | 2.83 | 8.97 | Particle size distribution D(v,0.5) ([1]; listed as Telmisartan form A, obtained by crystallization from DMF): less than 3 μ
CCCc1nc2c(C)cc(-c3nc4ccccc4n3C)cc2n1Cc1ccc(-c2ccccc2C(=O)O)cc1 [Example 7, Telmisartan] | – | – | – | – | – | – | – | – | D(V, 0.1) ([1]; Ground material): 0.7 µm; D(V, 0.5) ([1]; Ground material): 3.3 µm; D(V, 0.9) ([1]; Ground material): 19.1; D(V, 0.1) [1, 6]: 0.8 µm; D(V, 0.5) [1, 6]: 8.1 µm; D(V, 0.9) [1, 6]: 24.7; D(V, 0.1) ([1]; Un-milled material): 51.4 µm; D(V, 0.5) ([1]; Un-milled material): 245 µm; D(V, 0.9) ([1]; Un-milled material): 578.2

Reference: patent US20060276525A1, “Processes of preparing highly pure telmisartan form A, suitable for pharmaceutical compositions” (priority 2005, published 2006)
